{"source": "paper PMC13046274", "about": "“Post-translational modifications of GlmR integrate metabolic and stress signals to maintain cell envelope homeostasis in Bacillus subtilis” (PLOS Genetics, 2026)", "key": {"[1]": {"target": "T1, GlmR (Bacillus subtilis, UniProt O06974, T304A)", "T1 construct": "gene mgfK; purified recombinant B. subtilis GlmR T304A, FITC-labeled (pET28a, from E. coli)", "T1 sequence (O06974 whole entry T304A)": "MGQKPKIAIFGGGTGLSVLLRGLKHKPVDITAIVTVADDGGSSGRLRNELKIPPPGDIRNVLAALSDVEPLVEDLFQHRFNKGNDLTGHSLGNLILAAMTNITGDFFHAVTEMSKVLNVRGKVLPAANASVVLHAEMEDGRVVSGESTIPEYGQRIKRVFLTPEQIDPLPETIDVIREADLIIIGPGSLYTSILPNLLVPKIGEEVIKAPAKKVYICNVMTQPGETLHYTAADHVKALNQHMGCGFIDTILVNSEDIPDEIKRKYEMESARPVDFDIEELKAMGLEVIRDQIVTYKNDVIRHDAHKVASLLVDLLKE", "experiment": "fluorescence titration of FITC-labeled GlmR T304A, single-site fit", "assay_type": "binding"}, "[2]": {"target": "T2, GlmR (Bacillus subtilis, UniProt O06974)", "T2 construct": "gene mgfK; purified recombinant B. subtilis GlmR, FITC-labeled (pET28a, from E. coli)", "T2 sequence (O06974 whole entry)": "as the sequence (O06974 whole entry T304A) above, with A304T counted along it", "experiment": "fluorescence titration of FITC-labeled GlmR, single-site fit", "assay_type": "binding"}}}
{"smiles": "CC(=O)N[C@H]1[C@@H](OP(=O)(O)OP(=O)(O)OC[C@H]2O[C@@H](n3ccc(=O)[nH]c3=O)[C@H](O)[C@@H]2O)O[C@H](CO)[C@@H](O)[C@@H]1O", "note": "[UDP-GlcNAc]", "values": [{"measurement": "Kd", "setting": "[1]", "result": "1670 ± 310", "unit": "µM"}, {"measurement": "Kd", "setting": "[2]", "result": "280 ± 40", "unit": "µM"}]}
